The values that follow are results of earlier work, collected in patent publication US20030068374A1, “Sustained release preparations of physiologically active compound hardly soluble in water and production process and use of the same” (priority 2000, published 2003).

Structures are written as SMILES.

The conditions of the series: in water, 18° C.

`[O]=[Zn]` [zinc oxide]: the solubility is recorded as 0.42 mg/100 ml.
